Assay results: patent US20260242419A1, “A CYCLIC PEPTIDE FOR TRAPPING INTERLEUKIN-1 BETA” (Merck Sharp & Dohme LLC, priority 2023, published 2026)
Starred links: 1 amine or outer side, 2 acyl side, 3 side chain; linkers in the order of their positions; H or OH if unused. Non-standard residues stand in square brackets, D forms with d. Residues, ends and D or L forms follow the SMILES beside them. Phe(4-(cis-4-COOH-cHex)) = N[C@@H](Cc1ccc([C@H]2CC[C@@H](C(=O)O)CC2)cc1)C(=O)O; dPro(4R-(4-pyridylmethyl)) = O=C(O)[C@H]1C[C@@H](Cc2ccncc2)CN1; Ala(piperidin-4-yl) = O=C([C@H](CC1CCN([*:3])CC1)N[*:1])[*:2]; Trp(βS-Me,4-F) = C[C@@H](c1c[nH]c2cccc(F)c12)[C@H](N)C(=O)O; Bip(4'-CONH2) = NC(=O)c1ccc(-c2ccc(C[C@H](N)C(=O)O)cc2)cc1; Bip(4'-COOH) = N[C@@H](Cc1ccc(-c2ccc(C(=O)O)cc2)cc1)C(=O)O; Ala(1-bicyclo(1.1.1)pentyl) = N[C@@H](CC12CC(C1)C2)C(=O)O; dPro(4R-Bzl(4-F)) = O=C(O)[C@H]1C[C@@H](Cc2ccc(F)cc2)CN1; dPro(3S-(4-F-Bn)) = O=C(O)[C@@H]1NCC[C@@H]1Cc1ccc(F)cc1; X4 = O=C([C@H]1[C@@H](Cc2ccncc2)CCN1[*:1])[*:2]; Ala(pyrimidin-5-yl) = N[C@@H](Cc1cncnc1)C(=O)O; Phe(4-CONH2) = NC(=O)c1ccc(C[C@H](N)C(=O)O)cc1; Phe(4-COOH) = N[C@@H](Cc1ccc(C(=O)O)cc1)C(=O)O; Ala(2-pyrazinyl) = N[C@@H](Cc1cnccn1)C(=O)O; Pro(cis-4-F) = O=C(O)[C@@H]1C[C@H](F)CN1; Ala(4-THP) = N[C@@H](CC1CCOCC1)C(=O)O; AEF = NCCOc1ccc(C[C@H](N)C(=O)O)cc1; Dap(CONH2) = NC(=O)NC[C@H](N)C(=O)O; d(αMeD) = C[C@@](N)(CC(=O)O)C(=O)O; h4Pal = N[C@@H](CCc1ccncc1)C(=O)O; 4Pal = N[C@@H](Cc1ccncc1)C(=O)O; αMeD = C[C@](N)(CC(=O)O)C(=O)O; d(αMeS) = C[C@@](N)(CO)C(=O)O; Dab = NCC[C@H](N)C(=O)O; Aib = CC(C)(N)C(=O)O; Sar = CNCC(=O)O

target: T1, IL-1β (Homo sapiens, UniProt P01584); experiment: IL-6 assay in MRC5 cells: inhibition of IL-1β induced IL-6 secretion (AlphaLISA); type: cell-based; conditions: inhibition of IL-1β induced IL-6 secretion in MRC5 cells; read-out: MRC5 IC50
T1 construct: purchased BioLegend 579404
T1 sequence (P01584 117-269): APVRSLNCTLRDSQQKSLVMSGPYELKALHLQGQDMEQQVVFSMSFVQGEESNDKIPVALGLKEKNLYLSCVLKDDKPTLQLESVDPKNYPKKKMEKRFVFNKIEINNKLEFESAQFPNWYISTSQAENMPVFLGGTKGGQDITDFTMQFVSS
Procedure, shortened: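 Compound was pre-incubated 1 h at ambient temperature with recombinant human IL-1β at 2λ EC80 before adding human lung fibroblast MRC5 cells (3000/well) in EMEM with 0.025% BSA. After overnight culture at 37 °C, 5% CO2, secreted IL-6 in conditioned medium was measured by AlphaLISA; IC50 from 4-parameter logistic fits.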

IC50 [nM] | Compound
0.041 | C[C@@H](c1c[nH]c2cccc(F)c12)[C@@H]1NC(=O)[C@@H]2C[C@H](F)CN2C(=O)CNC(=O)[C@H](Cc2ccc(C(=O)O)cc2)NC(=O)[C@H](CC23CC(C2)C3)NC(=O)[C@H](Cc2ccc(-c3ccc(C(=O)O)cc3)cc2)NC(=O)[C@H]2C[C@@H](Cc3ccncc3)CN2C(=O)CNC(=O)[C@H](CO)NC(=O)[C@H](CCC(N)=O)NC(=O)[C@H](CC2CCNCC2)NC(=O)[C@@](C)(CO)NC(=O)[C@H](Cc2c[nH]c3ccccc23)NC(=O)[C@H](CCC(=O)O)NC(=O)C(C)(C)NC1=O [Example 178] (cyclo([Bip(4'-COOH)][Ala(1-bicyclo(1.1.1)pentyl)][Phe(4-COOH)]G[Pro(cis-4-F)][Trp(βS-Me,4-F)][Aib]EW[d(αMeS)][Ala(piperidin-4-yl)]QSG[dPro(4R-(4-pyridylmethyl))]))
0.016 | C[C@@H](c1c[nH]c2cccc(F)c12)[C@@H]1NC(=O)[C@@H]2C[C@H](F)CN2C(=O)CNC(=O)[C@H](Cc2ccc(C(=O)O)cc2)NC(=O)[C@H](Cc2ccncc2)NC(=O)[C@H](Cc2ccc(-c3ccc(C(=O)O)cc3)cc2)NC(=O)[C@H]2C[C@@H](Cc3ccncc3)CN2C(=O)CNC(=O)[C@H](CO)NC(=O)[C@H](CCC(N)=O)NC(=O)[C@H](CC2CCOCC2)NC(=O)[C@](C)(CC(=O)O)NC(=O)[C@H](Cc2c[nH]c3ccccc23)NC(=O)[C@H](CO)NC(=O)C(C)(C)NC1=O [Example 189] (cyclo([Bip(4'-COOH)][4Pal][Phe(4-COOH)]G[Pro(cis-4-F)][Trp(βS-Me,4-F)][Aib]SW[αMeD][Ala(4-THP)]QSG[dPro(4R-(4-pyridylmethyl))]))
0.009 | CC(=O)NCCOc1ccc(C[C@@H]2NC(=O)[C@H]3[C@@H](Cc4ccc(F)cc4)CCN3C(=O)CNC(=O)[C@H](CCN)NC(=O)[C@H](CCC(N)=O)NC(=O)[C@H](CC3CCOCC3)NC(=O)[C@@](C)(CC(=O)O)NC(=O)[C@H](Cc3c[nH]c4ccccc34)NC(=O)[C@H](CO)NC(=O)C(C)(C)NC(=O)[C@H]([C@@H](C)c3c[nH]c4cccc(F)c34)NC(=O)[C@@H]3C[C@H](F)CN3C(=O)CNC(=O)[C@H](Cc3ccc(C(=O)O)cc3)NC(=O)[C@H](Cc3ccncc3)NC2=O)cc1 [Example 372] (cyclo([AEF](Ac)[4Pal][Phe(4-COOH)]G[Pro(cis-4-F)][Trp(βS-Me,4-F)][Aib]SW[d(αMeD)][Ala(4-THP)]Q[Dab]G[dPro(3S-(4-F-Bn))]))
0.025 | CC(=O)NCCOc1ccc(C[C@@H]2NC(=O)[C@H]3C[C@@H](Cc4ccncc4)CN3C(=O)CNC(=O)[C@H](CCN)NC(=O)[C@H](CCC(N)=O)NC(=O)[C@H](CC3CCOCC3)NC(=O)[C@@](C)(CO)NC(=O)[C@H](Cc3c[nH]c4ccccc34)NC(=O)[C@H](CO)NC(=O)C(C)(C)NC(=O)[C@H]([C@@H](C)c3c[nH]c4cccc(F)c34)NC(=O)[C@@H]3C[C@H](F)CN3C(=O)CNC(=O)[C@H](Cc3ccc(C(=O)O)cc3)NC(=O)[C@H](CC34CC(C3)C4)NC2=O)cc1 [Example 375] (cyclo([AEF](Ac)[Ala(1-bicyclo(1.1.1)pentyl)][Phe(4-COOH)]G[Pro(cis-4-F)][Trp(βS-Me,4-F)][Aib]SW[d(αMeS)][Ala(4-THP)]Q[Dab]G[dPro(4R-(4-pyridylmethyl))]))
0.015 | C[C@@H](c1c[nH]c2cccc(F)c12)[C@@H]1NC(=O)[C@@H]2C[C@H](F)CN2C(=O)CNC(=O)[C@H](Cc2ccc(C(=O)O)cc2)NC(=O)[C@H](Cc2ccncc2)NC(=O)[C@H](Cc2ccc(-c3ccc(C(=O)O)cc3)cc2)NC(=O)[C@H]2C[C@@H](Cc3ccncc3)CN2C(=O)CN(C)C(=O)[C@H](CCN)NC(=O)[C@H](CCC(N)=O)NC(=O)[C@H](CC2CCOCC2)NC(=O)[C@](C)(CC(=O)O)NC(=O)[C@H](Cc2c[nH]c3ccccc23)NC(=O)[C@H](CO)NC(=O)C(C)(C)NC1=O [Example 208] (cyclo([Bip(4'-COOH)][4Pal][Phe(4-COOH)]G[Pro(cis-4-F)][Trp(βS-Me,4-F)][Aib]SW[αMeD][Ala(4-THP)]Q[Dab][Sar][dPro(4R-(4-pyridylmethyl))]))

Continued, compound first:

Compound | IC50 [nM]
C[C@@H](c1c[nH]c2cccc(F)c12)[C@@H]1NC(=O)[C@@H]2C[C@H](F)CN2C(=O)CNC(=O)[C@H](Cc2ccc(C(=O)O)cc2)NC(=O)[C@H](Cc2ccncc2)NC(=O)[C@H](Cc2ccc([C@H]3CC[C@@H](C(=O)O)CC3)cc2)NC(=O)[C@H]2C[C@@H](Cc3ccc(F)cc3)CN2C(=O)CNC(=O)[C@H](CCN)NC(=O)[C@H](CCC(N)=O)NC(=O)[C@H](Cc2cnccn2)NC(=O)C(C)(C)NC(=O)[C@H](Cc2c[nH]c3ccccc23)NC(=O)[C@H](CCC(=O)O)NC(=O)C(C)(C)NC1=O [Example 117] (cyclo([Phe(4-(cis-4-COOH-cHex))][4Pal][Phe(4-COOH)]G[Pro(cis-4-F)][Trp(βS-Me,4-F)][Aib]EW[Aib][Ala(2-pyrazinyl)]Q[Dab]G[dPro(4R-Bzl(4-F))])) | 0.027
C[C@@H](c1c[nH]c2cccc(F)c12)[C@@H]1NC(=O)[C@@H]2C[C@H](F)CN2C(=O)CNC(=O)[C@H](Cc2ccc(C(N)=O)cc2)NC(=O)[C@H](Cc2ccncc2)NC(=O)[C@H](Cc2ccc(-c3ccc(C(N)=O)cc3)cc2)NC(=O)[C@H]2[C@@H](Cc3ccc(F)cc3)CCN2C(=O)CNC(=O)[C@H](CCN)NC(=O)[C@H](CCC(N)=O)NC(=O)[C@H](Cc2cncnc2)NC(=O)[C@@](C)(CC(=O)O)NC(=O)[C@H](Cc2c[nH]c3ccccc23)NC(=O)[C@H](CO)NC(=O)C(C)(C)NC1=O [Example 380] (cyclo([Bip(4'-CONH2)][4Pal][Phe(4-CONH2)]G[Pro(cis-4-F)][Trp(βS-Me,4-F)][Aib]SW[d(αMeD)][Ala(pyrimidin-5-yl)]Q[Dab]G[dPro(3S-(4-F-Bn))])) | 0.018
C[C@@H](c1c[nH]c2cccc(F)c12)[C@@H]1NC(=O)[C@@H]2C[C@H](F)CN2C(=O)CNC(=O)[C@H](Cc2ccc(C(=O)O)cc2)NC(=O)[C@H](Cc2ccncc2)NC(=O)[C@H](Cc2ccc(-c3ccc(C(=O)O)cc3)cc2)NC(=O)[C@H]2[C@@H](Cc3ccncc3)CCN2C(=O)CNC(=O)[C@H](CNC(N)=O)NC(=O)[C@H](CCC(N)=O)NC(=O)[C@H](CCc2ccncc2)NC(=O)[C@@](C)(CC(=O)O)NC(=O)[C@H](Cc2c[nH]c3ccccc23)NC(=O)[C@H](CO)NC(=O)C(C)(C)NC1=O [Example 223] (cyclo([Bip(4'-COOH)][4Pal][Phe(4-COOH)]G[Pro(cis-4-F)][Trp(βS-Me,4-F)][Aib]SW[d(αMeD)][h4Pal]Q[Dap(CONH2)]G[X4])) | 0.027
C[C@@H](c1c[nH]c2cccc(F)c12)[C@@H]1NC(=O)[C@@H]2C[C@H](F)CN2C(=O)CNC(=O)[C@H](Cc2ccc(C(=O)O)cc2)NC(=O)[C@H](Cc2ccncc2)NC(=O)[C@H](Cc2ccc(-c3ccc(C(=O)O)cc3)cc2)NC(=O)[C@H]2C[C@@H](Cc3ccc(F)cc3)CN2C(=O)CNC(=O)[C@H](CCN)NC(=O)[C@H](CCC(N)=O)NC(=O)[C@H](CC2CCNCC2)NC(=O)C(C)(C)NC(=O)[C@H](Cc2c[nH]c3ccccc23)NC(=O)[C@H](CCC(=O)O)NC(=O)C(C)(C)NC1=O [Example 119] (cyclo([Bip(4'-COOH)][4Pal][Phe(4-COOH)]G[Pro(cis-4-F)][Trp(βS-Me,4-F)][Aib]EW[Aib][Ala(piperidin-4-yl)]Q[Dab]G[dPro(4R-Bzl(4-F))])) | 0.016
